Publication PMC2748117 (Journal of medicinal chemistry, 2008)

Columns and labels:
KB cells [1] = assay: Growth inhibition of KB tumor cells, with folate/nucleoside/AICA protection; type: cell-based, human
human TS = settings: ref [22], [23]; cited from earlier work
CCRF-CEM leukemia cell = settings: supraphysiologic folate; protected by hypoxanthine, not thymidine; ref [22], [23]; cited from earlier work
[2] = tested on: human folylpolyglutamate synthetase; settings: ref [23]; cited from earlier work
human DHFR = settings: ref [22], [23]; cited from earlier work
KB cells [3] = assay: Colony formation and reversibility assay with KB cells; settings: 0.1 to 100 nM drug, 10 days
human RFC = assay: Inhibition of RFC-mediated [3H]MTX uptake in PC43-10 cells; type: cell-based; settings: unlabeled compound 10 µM, 0.5 µM [3H]MTX, 2 min, 37°C
KB cells [4] = assay: Apoptosis assay, Annexin V-FITC flow cytometry; type: cell-based, human; settings: 1 µM, 24 h, Annexin V positive cells

Row | SMILES | Effect of thymidine on growth inhibitory activity toward KB cells (KB cells [1]; 10 µM thymidine) | Effect of adenosine on growth inhibition of KB cells (KB cells [1]; 60 µM adenosine) | Protection by AICA from growth inhibitory effects in KB cells (KB cells [1]; 192 µM AICA) | Inhibition of purified human TS (human TS) | Inhibition of CCRF-CEM leukemia cell growth (CCRF-CEM leukemia cell) | Substrate activity for polyglutamylation [2] | Inhibition of purified human DHFR (human DHFR) | Inhibition of colony formation, continuous exposure (KB cells [3]) | Inhibition of [3H]MTX uptake (human RFC) | Apoptosis level relative to the antifolate drugs (KB cells [4]) | Increase of IC50 between 2 nM and 20 nM LCV (KB cells [1]; KB cells, folate-free media, 20 nM versus 2 nM leucovorin) | Increase of IC50 at 40 nM LCV (KB cells [1]; KB cells, folate-free media, 40 nM versus 2 nM leucovorin)
1 | Nc1nc2[nH]c(CCCc3ccc(C(=O)N[C@@H](CCC(=O)O)C(=O)O)cc3)cc2c(=O)[nH]1 [Compound 2] | no effect | completely reversed | completely protected | poor inhibitors | modest inhibitors | excellent substrates | poor inhibitors | more potent inhibitors than either compound 4 or MTX | – | – | – | –
2 | Nc1nc(=O)c2nc(CNc3ccc(C(=O)N[C@@H](CCC(=O)O)C(=O)O)cc3)cnc2[nH]1 [folic acid] | – | – | – | – | – | – | – | – | < 20% | – | – | –
3 | COc1cccc2c1C(=O)c1c(O)c3c(c(O)c1C2=O)C[C@@](O)(C(C)=O)C[C@@H]3O[C@H]1C[C@H](N)[C@H](O)[C@H](C)O1 [daunorubicin] | – | – | – | – | – | – | – | – | – | 4 factor | – | –
4 | Nc1nc2[nH]c(CCCCc3ccc(C(=O)N[C@@H](CCC(=O)O)C(=O)O)cc3)cc2c(=O)[nH]1 [Compound 3, N-{4-[4-(2-Amino-4-oxo-4,7-dihydro-3H-pyrrolo[2,3-d]pyrimidin-6-yl)butyl]benzoyl}-L-glutamic Acid] | – | – | – | poor inhibitors | modest inhibitors | excellent substrates | poor inhibitors | more potent inhibitors than either compound 4 or MTX | – | – | approximately 3 fold | ~6 fold
